According to patent US11091478B2 (Fochon Pharmaceuticals, Ltd., priority 2017, dated 2021):

How the values were obtained:
DOHH2 cells = assay: Cell proliferation assay (MTS), DOHH2 cells, 120 h; assay type: cell-based; conditions: Homo sapiens, DOHH-2, 120 h
Outline: (§1)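 RS4;11 and DOHH2 cells at 5000 cells/well in RPMI-1640 with 10% FBS were treated with compound at 1.5–10000 nM final, nine points, at 37 °C, 5% CO2. Exposure was 72 h for RS4;11 and 120 h for DOHH2. MTS was added for 2 h, absorbance read at 490/650 nm, and IC50 calculated.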

RS4;11 cells = assay: Cell proliferation assay (MTS), RS4;11 cells, 72 h; assay type: cell-based; conditions: Homo sapiens, RS4-11, 72 h
Outline: as §1

Row | Compound | IC50 (RS4;11 cells) | IC50 (DOHH2 cells)
1 | CC1(C)CCC(CN2CCN(c3ccc(C(=O)NS(=O)(=O)c4cc5c(c([N+](=O)[O-])c4)N[C@@H](Cc4cccnc4)CO5)c(Oc4cnc5[nH]ccc5c4)c3)CC2)=C(c2ccc(Cl)cc2)C1 [Example 2-163, (S)-2-((1H-pyrrolo[2,3-b]pyridin-5-yl)oxy)-4-(4-((4′-chloro-5,5-dimethyl-3,4,5,6-tetra-hydro-[1,1′-biphenyl]-2-yl)methyl)piperazin-1-yl)-N-((5-nitro-3-(pyridin-3-ylmethyl)-3,4-dihydro-2H-benzo[b][1,4]oxazin-7-yl)sulfonyl)benzamide] | 29 nM | 53 nM
2 | CC1(C)CCC(CN2CCN(c3ccc(C(=O)NS(=O)(=O)c4cc5c(c([N+](=O)[O-])c4)N[C@@H](Cc4ccncc4)CO5)c(Oc4cnc5[nH]ccc5c4)c3)CC2)=C(c2ccc(Cl)cc2)C1 [Example 2-164] | 34 nM | 16 nM
3 | CC1(C)CCC(CN2CCN(c3ccc(C(=O)NS(=O)(=O)c4cc5c(c([N+](=O)[O-])c4)N[C@@H](c4ccc(S(C)(=O)=O)cc4)CO5)c(Oc4cnc5[nH]ccc5c4)c3)CC2)=C(c2ccc(Cl)cc2)C1 [Example 2-168, (S)-2-((1H-pyrrolo[2,3-b]pyridin-5-yl)oxy)-4-(4-((4′-chloro-5,5-dimethyl-3,4,5,6-tetra-hydro-[1,1′-biphenyl]-2-yl)methyl)piperazin-1-yl)-N-((3-(4-(methylsulfonyl)phenyl)-5-nitro-3,4-dihydro-2H-benzo[b][1,4]oxazin-7-yl)sulfonyl)benzamide] | 33 nM | 32 nM
4 | CC1(C)CCC(CN2CCN(c3ccc(C(=O)NS(=O)(=O)c4cc5c(c([N+](=O)[O-])c4)NC(CC4CCOCC4)CO5)c(Oc4cnc5[nH]ccc5c4)c3)CC2)=C(c2ccc(Cl)cc2)C1 (centres unmarked) [Example 2-180, 2-((1H-pyrrolo[2,3-b]pyridin-5-yl)oxy)-4-(4-((4′-chloro-5,5-dimethyl-3,4,5,6-tetrahydro-[1,1′-biphenyl]-2-yl)methyl)piperazin-1-yl)-N-((5-nitro-3-((tetrahydro-2H-pyran-4-yl)methyl)-3,4-dihydro-2H-benzo[b][1,4]oxazin-7-yl)sulfonyl)benzamide] | 8 nM | 15 nM
5 | CC1(C)CCC(CN2CCN(c3ccc(C(=O)NS(=O)(=O)c4cc5c(c([N+](=O)[O-])c4)N[C@H](CC4CCOCC4)CO5)c(Oc4cnc5[nH]ccc5c4)c3)CC2)=C(c2ccc(Cl)cc2)C1 [Example 2-181, (R)-2-((1H-pyrrolo[2,3-b]pyridin-5-yl)oxy)-4-(4-((4′-chloro-5,5-dimethyl-3,4,5,6-tetra-hydro-[1,1′-biphenyl]-2-yl)methyl)piperazin-1-yl)-N-((5-nitro-3-((tetrahydro-2H-pyran-4-yl)methyl)-3,4-dihydro-2H-benzo[b] [1,4]oxazin-7-yl)sulfonyl)benzamide] | 45 nM | 84 nM
6 | CC1(C)CCC(CN2CCN(c3ccc(C(=O)NS(=O)(=O)c4cc5c(c([N+](=O)[O-])c4)N[C@@H](CC4CCOCC4)CO5)c(Oc4cnc5[nH]ccc5c4)c3)CC2)=C(c2ccc(Cl)cc2)C1 [Example 2-182, (S)-2-((1H-pyrrolo[2,3-b]pyridin-5-yl)oxy)-4-(4-((4′-chloro-5,5-dimethyl-3,4,5,6-tetra-hydro-[1,1′-biphenyl]-2-yl)methyl)piperazin-1-yl)-N-((5-nitro-3-((tetrahydro-2H-pyran-4-yl)methyl)-3,4-dihydro-2H-benzo[b] [1,4]oxazin-7-yl)sulfonyl)benzamide] | 3 nM | 16 nM
7 | CC1(C)CCC(CN2CCN(c3ccc(C(=O)NS(=O)(=O)c4cc5c(c([N+](=O)[O-])c4)N[C@@H](COC4CCOCC4)CO5)c(Oc4cnc5[nH]ccc5c4)c3)CC2)=C(c2ccc(Cl)cc2)C1 [Example 2-183, (S)-2-((1H-pyrrolo[2,3-b]pyridin-5-yl)oxy)-4-(4-((4′-chloro-5,5-dimethyl-3,4,5,6-tetra-hydro-[1,1′-biphenyl]-2-yl)methyl)piperazin-1-yl)-N-((5-nitro-3-(((tetrahydro-2H-pyran-4-yl)oxy)methyl)-3,4-dihydro-2H-benzo [b][1,4]oxazin-7-yl)sulfonyl)benzamide] | 4 nM | 20 nM
8 | CC1(C)CCC(CN2CCN(c3ccc(C(=O)NS(=O)(=O)c4cc5c(c([N+](=O)[O-])c4)N[C@H](COC4CCOCC4)CO5)c(Oc4cnc5[nH]ccc5c4)c3)CC2)=C(c2ccc(Cl)cc2)C1 [Example 2-184, (R)-2-((1H-pyrrolo[2,3-b]pyridin-5-yl)oxy)-4-(4-((4′-chloro-5,5-dimethyl-3,4,5,6-tetra-hydro-[1,1′-biphenyl]-2-yl)methyl)piperazin-1-yl)-N-((5-nitro-3-(((tetrahydro-2H-pyran-4-yl)oxy)methyl)-3,4-dihydro-2H-benzo [b][1,4]oxazin-7-yl)sulfonyl)benzamide] | 3 nM | 11 nM
9 | CC1(C)CCC(CN2CCN(c3ccc(C(=O)NS(=O)(=O)c4cc5c(c([N+](=O)[O-])c4)NC(C4CCOCC4)CO5)c(Oc4cnc5[nH]ccc5c4)c3)CC2)=C(c2ccc(Cl)cc2)C1 (centres unmarked) [Example 2-185, 2-((1H-pyrrolo[2,3-b]pyridin-5-yl)oxy)-4-(4-((4′-chloro-5,5-dimethyl-3,4,5,6-tetra-hydro[1,1′-biphenyl]-2-yl)methyl)piperazin-1-yl)-N-((5-nitro-3-(tetrahydro-2H-pyran-4-yl)-3,4-dihydro-2H-benzo[b][1,4]oxazin-7-yl)sulfonyl)benzamide] | 1 nM | 3 nM
10 | CC1(C)CCC(CN2CCN(c3ccc(C(=O)NS(=O)(=O)c4cc5c(c([N+](=O)[O-])c4)N[C@H](C4CCOCC4)CO5)c(Oc4cnc5[nH]ccc5c4)c3)CC2)=C(c2ccc(Cl)cc2)C1 [Example 2-186, (R)-2-((1H-pyrrolo[2,3-b]pyridin-5-yl)oxy)-4-(4-((4′-chloro-5,5-dimethyl-3,4,5,6-tetra-hydro-[1,1′-biphenyl]-2-yl)methyl)piperazin-1-yl)-N-((5-nitro-3-(tetrahydro-2H-pyran-4-yl)-3,4-dihydro-2H-benzo[b][1,4]oxazin-7-yl)sulfonyl)benzamide] | 1 nM | 13 nM
11 | CC1(C)CCC(CN2CCN(c3ccc(C(=O)NS(=O)(=O)c4cc5c(c([N+](=O)[O-])c4)N[C@@H](C4CCOCC4)CO5)c(Oc4cnc5[nH]ccc5c4)c3)CC2)=C(c2ccc(Cl)cc2)C1 [Example 2-187, (S)-2-((1H-pyrrolo[2,3-b]pyridin-5-yl)oxy)-4-(4-((4′-chloro-5,5-dimethyl-3,4,5,6-tetra-hydro-[1,1′-biphenyl]-2-yl)methyl)piperazin-1-yl)-N-((5-nitro-3-(tetrahydro-2H-pyran-4-yl)-3,4-dihydro-2H-benzo[b][1,4]oxazin-7-yl)sulfonyl)benzamide] | 2 nM | 14 nM

Continued, in another order:

Row | IC50 (RS4;11 cells) | Compound | IC50 (DOHH2 cells)
12 | 82 nM | CC1(C)CCC(CN2CCN(c3ccc(C(=O)NS(=O)(=O)c4cc5c(c([N+](=O)[O-])c4)N[C@H](c4ccc(F)cc4)CO5)c(Oc4cnc5[nH]ccc5c4)c3)CC2)=C(c2ccc(Cl)cc2)C1 [Example 2-166, (R)-2-((1H-pyrrolo[2,3-b]pyridin-5-yl)oxy)-4-(4-((4′-chloro-5,5-dimethyl-3,4,5,6-tetra-hydro-[1,1′-biphenyl]-2-yl)methyl)piperazin-1-yl)-N-((3-(4-fluorophenyl)-5-nitro-3,4-dihydro-2H-benzo[b][1,4]oxazin-7-yl)sulfo-nyl)benzamide] | 300 nM
13 | 53 nM | CC1(C)CCC(CN2CCN(c3ccc(C(=O)NS(=O)(=O)c4cc5c(c([N+](=O)[O-])c4)N[C@H](c4ccc(S(C)(=O)=O)cc4)CO5)c(Oc4cnc5[nH]ccc5c4)c3)CC2)=C(c2ccc(Cl)cc2)C1 [Example 2-175, (R)-2-((1H-pyrrolo[2,3-b]pyridin-5-yl)oxy)-4-(4-((4′-chloro-5,5-dimethyl-3,4,5,6-tetra-hydro-[1,1′-biphenyl]-2-yl)methyl)piperazin-1-yl)-N-((3-(4-(methylsulfonyl)phenyl)-5-nitro-3,4-dihydro-2H-benzo[b][1,4]oxazin-7-yl)sulfonyl)benzamide] | 139 nM
14 | 64 nM | COc1ccc([C@H]2COc3cc(S(=O)(=O)NC(=O)c4ccc(N5CCN(CC6=C(c7ccc(Cl)cc7)CC(C)(C)CC6)CC5)cc4Oc4cnc5[nH]ccc5c4)cc([N+](=O)[O-])c3N2)cc1 [Example 2-176, (S)-2-((1H-pyrrolo[2,3-b]pyridin-5-yl)oxy)-4-(4-((4′-chloro-5,5-dimethyl-3,4,5,6-tetra-hydro-[1,1′-biphenyl]-2-yl)methyl)piperazin-1-yl)-N-((3-(4-methoxyphenyl)-5-nitro-3,4-dihydro-2H-benzo[b][1,4]oxazin-7-yl)sul-fonyl)benzamide] | 547 nM
15 | 13 nM | CC1(C)CCC(CN2CCN(c3ccc(C(=O)NS(=O)(=O)c4cc5c(c([N+](=O)[O-])c4)N[C@H](c4ccccn4)CO5)c(Oc4cnc5[nH]ccc5c4)c3)CC2)=C(c2ccc(Cl)cc2)C1 [Example 2-177, (R)-2-((1H-pyrrolo[2,3-b]pyridin-5-yl)oxy)-4-(4-((4′-chloro-5,5-dimethyl-3,4,5,6-tetra-hydro-[1,1′-biphenyl]-2-yl)methyl)piperazin-1-yl)-N-((5-nitro-3-(pyridin-2-yl)-3,4-di-hydro-2H-benzo[b][1,4]oxazin-7-yl)sulfonyl) benzamide] | 119 nM
16 | 18 nM | COc1ccc([C@@H]2COc3cc(S(=O)(=O)NC(=O)c4ccc(N5CCN(CC6=C(c7ccc(Cl)cc7)CC(C)(C)CC6)CC5)cc4Oc4cnc5[nH]ccc5c4)cc([N+](=O)[O-])c3N2)nc1 [Example 2-179, (R)-2-((1H-pyrrolo[2,3-b]pyridin-5-yl)oxy)-4-(4-((4′-chloro-5,5-dimethyl-3,4,5,6-tetra-hydro-[1,1′-biphenyl]-2-yl)methyl)pieprazin-1-yl)-N-((3-(5-methoxypyridin-2-yl)-5-ni-tro-3,4-dihydro-2H-benzo[b][1,4]oxazin-7-yl)sulfonyl)benzamide] | 380 nM
